This note sets out measurements from patent publication US20230390323A1, “SPRAYABLE ANTIVIRAL FORMULATION” (priority 2020, published 2023).

For this data set, the system named is cells. Put plainly: Cell compliance with the spray formulations. In kind it is cell-based. On the procedure: A study was undertaken to determine cell compliance with the spray formulations over a 48 hour testing period. […] Dose-response was linear (R^2=0.96 and 0.97 for gellan and lambda-carrageenan, respectively), with reduced cell death as the systems became increasing more dilute.

For gellan, the “Reduction in the number of living cells” value is 2 fold.
